The source made the active and inactive calls. No cut-off for these calls is given here.
Tests used:
Thoracic aorta [1] = test: Vasorelaxant activity in C57 mouse thoracic aortic rings containing endothelium assessed as reduction in phenylephrine-induced contractions at 3 to 300 uM measured for 16 mins by myograph assay; assay type: functional, tissue-based; conditions: dose 3-300 µM
Thoracic aorta [2] = test: Vasorelaxant activity in C57 mouse thoracic aortic rings containing endothelium assessed as reduction in high extracellular K+-induced contractions measured for 16 mins by myograph assay; assay type: functional, tissue-based; conditions: dose 3-300 µM
Thoracic aorta [3] = test: Vasorelaxant activity in C57 mouse thoracic aortic rings assessed as reduction in high extracellular K+-induced contractions at 3 to 300 uM measured for 16 mins in absence of endothelium by myograph assay; assay type: functional, tissue-based; conditions: dose 3-300 µM
Thoracic aorta [4] = test: Vasorelaxant activity in C57 mouse thoracic aortic rings containing endothelium assessed as reduction in phenylephrine-induced contractions at 3 to 300 uM pretreated with nitric oxide synthase inhibitor, L-NAME and measured for 16 mins by myograph method; assay type: functional, tissue-based; conditions: dose 3-300 µM
Thoracic aorta [5] = test: Vasorelaxant activity in C57 mouse thoracic aortic rings assessed as reduction in phenylephrine-induced contractions at 3 to 300 uM measured for 16 mins in absence of endothelium by myograph method; assay type: functional, tissue-based; conditions: dose 3-300 µM
Thoracic aorta [6] = test: Vasorelaxant activity in C57 mouse thoracic aortic rings containing endothelium assessed as reduction in phenylephrine-induced contractions at 300 uM after 40 mins by myograph method; assay type: functional
Thoracic aorta [7] = test: Vasorelaxant activity in C57 mouse thoracic aortic rings containing endothelium assessed as reduction in high extracellular K+-induced contractions at 3 to 300 uM pretreated with nitric oxide synthase inhibitor, L-NAME and measured for 16 mins by myograph method; assay type: functional, tissue-based; conditions: dose 3-300 µM

Structure (SMILES)	Activity (Thoracic aorta [1])	Activity (Thoracic aorta [2])	Activity (Thoracic aorta [3])	Activity (Thoracic aorta [4])	Activity (Thoracic aorta [5])	inhibition at 300 µM (Thoracic aorta [6]) [%]	Activity (Thoracic aorta [7])
COc1ccc2nc(Oc3ccc(-c4ccc(C#N)cc4)cc3)c(N3CCN(c4ccccc4)CC3)nc2c1	Active	Dose-dependent effect	Active	–	–	–	–
COc1ccc2nc(N3CCCC3)c(N3CCN(c4ccccc4)CC3)nc2c1	inactive	–	–	–	–	–	–
COc1ccc2nc(N3CCCC3)c(N3CCOCC3)nc2c1	inactive	–	–	–	–	–	–
COc1ccc2nc(N3CCCC3)c(N3CCN(C)CC3)nc2c1	Dose-dependent effect	Dose-dependent effect	Active	Active	Active	50	Active
COc1ccc2nc(Oc3ccc(-c4ccc(C#N)cc4)cc3)c(N3CCN(C)CC3)nc2c1	Active	Dose-dependent effect	Active	–	–	–	–
COc1ccc2nc(N3CCCC3)c(N3CCN(Cc4ccccc4)CC3)nc2c1	inactive	–	–	–	–	–	–
CCN1CCN(c2nc3cc(OC)ccc3nc2N2CCCC2)CC1	Dose-dependent effect	Dose-dependent effect	Active	Active	Active	50	Active
COc1ccc2nc(NC#N)c(N3CCN(Cc4ccccc4)CC3)nc2c1	inactive	–	–	–	–	–	–
COc1ccc2nc(Oc3ccc(-c4ccccc4)cc3)c(N3CCCC3)nc2c1	inactive	–	–	–	–	–	–
COC(=O)C1CCN(c2nc3cc(OC)ccc3nc2N2CCCC2)CC1	Dose-dependent effect	Dose-dependent effect	Active	Active	Active	72.7	Active

Source: ChEMBL document CHEMBL4706661, “Synthesis and vasorelaxant evaluation of novel 7-methoxyl-2,3-disubstituted-quinoxaline derivatives” (2021)
